The results in this text go back to ChEMBL document CHEMBL1145674, “Isolation and identification of "diazepam-like" compounds from bovine urine” (J Nat Prod, 1983).

Tested on in the first assay: not listed separately
The assay is described as follows: Displacement of [3H]diazepam from benzodiazepine receptor in rat cerebral cortex membrane. It counts as cell membranes. (In general: In a radioligand displacement assay an active substance lowers the binding of a labelled ligand.)
In the case of `O=c1c(-c2cccc(O)c2)coc2cc(O)ccc12`, the IC50 (commonly the concentration that gives 50% inhibition) was found to be 140 µM. `Oc1cccc(C2COc3cc(O)ccc3C2)c1` (racemic) registered an IC50 of 45 µM. Still for that read-out and setting: under `COc1ccc2c(c1)OCC(c1ccc(O)cc1)C2` (racemic) stands 1300 µM. `COc1ccc(C2COc3cc(O)ccc3C2)cc1` (racemic) displayed a half-maximal inhibitory concentration (IC50) of 1500 µM. Molecule `Oc1ccc([C@H]2COc3cc(O)ccc3C2)cc1` [AUS-131] gave a half-maximal inhibitory concentration (IC50) of 80 µM.

In turn, `CN1C(=O)CN=C(c2ccccc2)c2cc(Cl)ccc21` [DIAZEPAM] had an IC50 of 0.005 µM. On the same count and under the same terms, the value for `COc1ccc(-c2coc3cc(O)ccc3c2=O)cc1` [FORMONONETIN] was 700 µM.

The molecule `O=c1[nH]cnc2nc[nH]c12` [HYPOXANTHINE] had an IC50 of 700 µM. Same read-out and setting: the value for `O=c1[nH]cnc2c1ncn2[C@@H]1O[C@H](CO)[C@@H](O)[C@H]1O` [INOSINE] was 900 µM; that for `COc1ccc2c(=O)c(-c3ccc(O)cc3)coc2c1` [ISOFORMONENTIN] was 1100 µM; that for `NC(=O)c1cccnc1` [NIACINAMIDE] was 3900 µM.

The species named for a further assay is Rattus norvegicus. The experiment in a line: Increase in [3H]diazepam binding to benzodiazepine receptor in rat cerebral cortex membrane at 0.5 mM relative to control. It counts as cell membranes.
In the case of `Clc1ccc2[nH]c3ccccc3c2c1`, the Activity came to 143%.

For another assay, the species on record is Rattus norvegicus. The experiment in a line: Increase in [3H]diazepam binding to benzodiazepine receptor in rat cerebral cortex membrane at 1 mM relative to control. It counts as cell membranes.
`Clc1ccc2[nH]c3ccccc3c2c1` returned an Activity of 172%.
